Experimental data taken from ChEMBL document CHEMBL4477264, “Amino acid amides of piperic acid (PA) and 4-ethylpiperic acid (EPA) as NorA efflux pump inhibitors of Staphylococcus aureus” (2016).

How the values were obtained:
[1] = molecular target: T1, Quinolone resistance protein NorA (Staphylococcus aureus) (UniProt P0A0J7); assay: Inhibition of NorA efflux pump overexpressed in Staphylococcus aureus 1199B assessed as fold reduction in ciprofloxacin MIC at 12.5 ug/ml measured after 24 hrs by broth checkerboard method
T1 sequence (whole entry): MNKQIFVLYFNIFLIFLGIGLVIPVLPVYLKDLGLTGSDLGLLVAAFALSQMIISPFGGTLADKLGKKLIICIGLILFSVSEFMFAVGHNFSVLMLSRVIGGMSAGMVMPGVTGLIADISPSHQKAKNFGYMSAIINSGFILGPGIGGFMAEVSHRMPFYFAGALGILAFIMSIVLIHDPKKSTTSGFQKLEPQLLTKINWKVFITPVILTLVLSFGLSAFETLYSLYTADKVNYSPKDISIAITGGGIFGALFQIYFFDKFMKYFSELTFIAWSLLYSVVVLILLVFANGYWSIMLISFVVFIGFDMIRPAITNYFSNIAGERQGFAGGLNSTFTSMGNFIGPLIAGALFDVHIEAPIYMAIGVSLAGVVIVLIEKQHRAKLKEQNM

[2] = molecular target: T1, Quinolone resistance protein NorA (Staphylococcus aureus); assay: Inhibition of NorA efflux pump overexpressed in Staphylococcus aureus 1199B assessed as concentration required for four-fold reduction in ciprofloxacin MIC measured after 24 hrs by broth checkerboard method relative to control
[3] = test system: Staphylococcus aureus; assay: Antibacterial activity against Staphylococcus aureus 1199B overexpressing NorA efflux pump measured after 24 hrs by broth checkerboard method; type: functional
[4] = molecular target: T1, Quinolone resistance protein NorA (Staphylococcus aureus); assay: Inhibition of NorA efflux pump in Staphylococcus aureus 1199 assessed as concentration required for four-fold reduction in ethidium bromide MIC measured at every 3 mins interval for 30 mins by fluorescence analysis
[5] = molecular target: T1, Quinolone resistance protein NorA (Staphylococcus aureus); assay: Inhibition of NorA efflux pump in Staphylococcus aureus 1199 assessed as fold reduction in ethidium bromide MIC at […] measured at every 3 mins interval for 30 mins by fluorescence analysis; details: 12.5 ug/ml
[6] = molecular target: T1, Quinolone resistance protein NorA (Staphylococcus aureus); assay: Inhibition of NorA efflux pump overexpressed in Staphylococcus aureus 1199B assessed as fold reduction in ethidium bromide MIC at 12.5 ug/ml measured at every 3 mins interval for 30 mins by fluorescence analysis
[7] = test system: Staphylococcus aureus; assay: Antibacterial activity against wild-type Staphylococcus aureus 1199 expressing NorA efflux pump measured at every 3 mins interval for 30 mins by fluorescence analysis; type: functional
[8] = test system: Staphylococcus aureus; assay: Antibacterial activity against Staphylococcus aureus 1199B overexpressing NorA efflux pump measured at every 3 mins interval for 30 mins by fluorescence analysis; type: functional
[9] = molecular target: T1, Quinolone resistance protein NorA (Staphylococcus aureus); assay: Inhibition of NorA efflux pump overexpressed in Staphylococcus aureus 1199B assessed as concentration required for four-fold reduction in ethidium bromide MIC measured at every 3 mins interval for 30 mins by fluorescence analysis

Q: With `CCC(/C=C/C(=O)N[C@@H](CC(C)C)C(=O)OC)=C\c1ccc2c(c1)OCO2` as the compound, how does the fold change (FC) [1] read?
A: 0

Q: What about the MEC [2] of the same compound?
A: > 50 µg/mL

Q: What about the MIC [3] of the same compound?
A: > 50 µg/mL

Q: Which results are given for `CCC1CCC(CC(=O)OC)(NC(=O)/C=C/C=C/c2ccc3c(c2)OCO3)CC1` (stereo not given)?
A: fold change (FC) [1]: 0; MEC [2]: 50 µg/mL; MIC [3]: > 50 µg/mL

Q: Which results are given for `CCC(/C=C/C(=O)N[C@H](C(=O)OC)C(C)(C)C)=C\c1ccc2c(c1)OCO2`?
A: fold change (FC) [1]: 4; MEC [4]: > 50 µg/mL; fold change (FC) [5]: 2; fold change (FC) [6]: 2; MEC [2]: 12.5 µg/mL; MIC [7]: > 50 µg/mL; MIC [8]: > 50 µg/mL; MEC [9]: 25 µg/mL; MIC [3]: > 50 µg/mL

Q: Which results are given for `CCC(/C=C/C(=O)NC1(CC(=O)OC)CCC(CC)CC1)=C\c1ccc2c(c1)OCO2` (stereo not given)?
A: fold change (FC) [1]: 0; MEC [2]: > 50 µg/mL; MIC [3]: > 50 µg/mL

Q: How did the fold change (FC) [1] turn out when `CCC(/C=C/C(=O)N[C@@H](C)C(=O)OC)=C\c1ccc2c(c1)OCO2` was run?
A: 0

Q: And the MEC [2]?
A: > 50 µg/mL

Q: What about the MIC [3] of the same compound?
A: > 50 µg/mL

Q: Which fold change (FC) [1] does the source give for `CCC(/C=C/C(=O)N1CCCCC1)=C\c1ccc2c(c1)OCO2` here?
A: 4

Q: What about the MEC [4] of the same compound?
A: 25 µg/mL

Q: And the fold change (FC) [5]?
A: 0

Q: And the fold change (FC) [6]?
A: 4

Q: What about the MEC [2] of the same compound?
A: 12.5 µg/mL

Q: What about the MIC [7] of the same compound?
A: > 50 µg/mL

Q: What about the MIC [8] of the same compound?
A: > 50 µg/mL

Q: What about the MEC [9] of the same compound?
A: 12.5 µg/mL

Q: And the MIC [3]?
A: > 50 µg/mL

Q: `CCC(/C=C/C(=O)N1CCC(CC(=O)NC(C)(C)C(=O)OC)(NC(C)=O)CC1)=C\c1ccc2c(c1)OCO2` was tested. Which fold change (FC) [1] did it give?
A: 2

Q: And the MEC [2]?
A: 25 µg/mL

Q: And the MIC [3]?
A: > 50 µg/mL

Q: With `CCC(/C=C/C(=O)N[C@H](C(=O)OC)C(C)C)=C\c1ccc2c(c1)OCO2` as the compound, how does the fold change (FC) [1] read?
A: 0

Q: And the MEC [2]?
A: > 50 µg/mL

Q: What about the MIC [3] of the same compound?
A: > 50 µg/mL

Q: Which results are given for `COC(=O)CC1(NC(=O)/C=C/C=C/c2ccc3c(c2)OCO3)CCCCC1`?
A: fold change (FC) [1]: 0; MEC [2]: > 50 µg/mL; MIC [3]: > 50 µg/mL

Q: How did the fold change (FC) [1] turn out when `COC(=O)CC1(NC(=O)/C=C/C=C/c2ccc3c(c2)OCO3)CCC(C(C)(C)C)CC1` (stereo not given) was run?
A: 0

Q: And the MEC [2]?
A: > 50 µg/mL

Q: And the MIC [3]?
A: > 50 µg/mL

Q: `CCC(/C=C/C(=O)NC1(CC(=O)OC)CCC(C(C)(C)C)CC1)=C\c1ccc2c(c1)OCO2` (stereo not given) was tested. Which fold change (FC) [1] did it give?
A: 0

Q: And the MEC [2]?
A: > 50 µg/mL

Q: What about the MIC [3] of the same compound?
A: > 50 µg/mL
